Laboratory results as given in US20260337190A1, “CRYSTAL FORM OF PYRIDINOPYRIMIDINONE COMPOUND, ACID SALT THEREOF, CRYSTAL FORM OF ACID SALT THEREOF, AND USE” (Wuhan Humanwell Innovative Drug Research and Development …, priority 2022, published 2026).

Tests used:
[1] = system: mutated KRAS and wild-type KRAS in tumor cells; details: cited from earlier work
[2] = Human liver microsome stability; type: in vitro ADME; details: human liver microsomes, 30 min, 37 °C, NADPH; read-out: Remaining percentage of compound after incubation for 30 min
Method: The human liver microsome stability test was performed by incubating the compound and human liver microsomes in vitro. First, the compound to be tested was prepared into a 10 mM stock solution in DMSO solvent, and then the compound was diluted to 0.5 mM with acetonitrile. Human liver microsomes (Corning) were diluted with PBS into a microsome/buffer solution, and the solution was used to dilute 0.5 mM compound into a working solution, in which the concentration of the compound was 1.5 μM, and the concentration of human liver microsomes was 0.75 mg/mL. A deep-well plate was taken, 30 μL of the working solution was added per well, and then 15 μL of pre-heated 6 mM NADPH solution was added thereto to initiate a reaction, and the reaction was incubated at 37 °C At 0, 5, 15, 30, and 45 min of the incubation, 135 μL of acetonitrile was added to the corresponding wells to terminate the reaction. After the reaction was terminated with acetonitrile at the last time point of 45 min, the deep-well plate was vortexed for 10 min (600 rpm/min), and then centrifuged for 15 min. After centrifugation, the supernatant was collected, and added with purified water in a ratio of 1:1 to perform LC-MS/MS detection. A ratio of a peak area of compound to a peak area of internal standard at each time point was obtained, and the peak area ratios of the compound at 5, 15, 30, and 45 min were compared with the peak area ratio at 0 min to calculate the remaining percentage of the compound at each time point. T1/2 was calculated by using GraphPad 5 software.

[3] = Variable temperature XRPD (VT-XRPD) of crystal forms; type: physicochemical; details: purged with N2 for 20 minutes
Description: The XRPD pattern was collected on an X-ray powder diffraction analyzer produced by PANalytacal, and the scanning parameters are shown in Table 2.
The crystal form A of the compound of formula I of Example 2 was identified using variable temperature XRPD (VT-XRPD).

[4] = Hygroscopicity by dynamic vapor sorption (DVS); type: physicochemical; details: 25 °C
Method: The dynamic vapor sorption (DVS) curve was collected on DVS IntrInsic from SMS (surface measurement systems). The relative humidity at 25 °C was corrected using the deliquescence points of LiCl, Mg(NO3)2, and KCl.
Starting from 0% RH or room humidity, the test collected the mass change percentage of the sample as the humidity changed (0% RH to 95% RH) under constant temperature conditions of 25 °C The results of the DVS test and the XRPD results of the samples before and after the DVS test are shown in FIG. 113 to FIG. 122.

[5] = Dynamic solubility in water, SGF, FaSSIF and FeSSIF; type: physicochemical
Method: Purified water was added to complete dissolution.

[6] = Influence of vacuum drying on crystal form A (XRPD, HPLC purity); type: physicochemical; details: vacuum drying 60 °C/80 °C, 4 hours
Method: In order to evaluate the influence of the drying conditions on the crystal form A of the compound of formula I, the changes of the sample before and after vacuum drying of the crystal form A of the compound of formula I under the condition of 60 °C/80 °C for 4 hours were respectively investigated. The XRPD, ^1H NMR, and HPLC purity of the dried sample were tested.

[7] = Solid state stability (25 °C/60% RH and 40 °C/75% RH, one week; XRPD and HPLC); type: physicochemical; details: open condition, one week, 25 °C/60% RH and 40 °C/75% RH
Method: The purity test, dynamic solubility test, and stability test in the assay were measured with an Agilent 1260 high-performance liquid chromatograph, and the salt formation molar ratio of ions was tested by ion chromatography, and the analytical conditions are shown in Table 5 and Table 6.

CNCc1ccccc1-c1csc([C@@H](C)Nc2nc(C)nc3cc(OC)c(OC)cc23)c1 [BAY-293]
reduction of activity of mutated and wild-type KRAS in tumor cells [1]: can effectively reduce the activity of mutated KRAS and wild-type KRAS in tumor cells

Cc1nc(N[C@H](C)c2cccc(C(F)(F)F)c2C)c2cn(C3(CF)CC3)c(=O)cc2n1 [Control compound 1, reference compound]
remaining at 0.5 h [2]: 70.2%

Cc1nc(N[C@H](C)c2cccc(S(F)(F)(F)(F)F)c2)c2cn(C3(CF)CC3)c(=O)cc2n1 [crystal form A of the compound of formula I]
crystal form on N2 purging [3]: transformed into a new crystal form B | moisture behaviour higher than 10% RH ([4]; higher than 10% RH): absorb more moisture and gain more weight with the increase of humidity | moisture behaviour lower than 10% RH ([4]; lower than 10% RH): rapidly dehydrate | solubility in water, SGF, FaSSIF and FeSSIF ([5]; 37 °C, 10 mg/mL feed, 1, 4, 24 hours): high solubility | change in crystal form after solubility test ([5]; XRPD after solubility test): no change in crystal form is observed | change in purity before and after drying (HPLC) [6]: no significant change in purity was observed | crystal form after vacuum drying ([6]; exposure to 19 °C/27% RH 10-15 min): still the crystal form A of the compound of formula I | solid state stability [7]: good stability
